Experimental findings from US11014914B2, “Opioid receptor (MOR) agonist salt, fumarate salt crystal form I thereof and preparation method thereof” (Jiangsu Hengrui Medicine Co., Ltd., priority 2017, dated 2021) are described below.

The nature of data set [1]: Solubility comparison of the fumarate salt and free base in water. The format is physicochemical. To be noted: thermodynamic from solid; pure water, stirred overnight, filtered, HPLC. From the text:
Test sample: compound represented by formula (II) (free base) prepared by comparative experiment 2 and product prepared by embodiment 1 (compound represented by formula (I));
The tested sample was weighted and added into pure water, then stirred by a magnetic stirrer overnight, and then filtered and diluted to a certain volume for sample injection;
HPLC chromatographic conditions: acetonitrile-0.1% aqueous trifluoroacetic acid (50:50) used as mobile phase, detection wavelength 264 nm, injection volume 10 μL, flow rate 1.0 mL/min.

Data set [2] is described as follows: Stability investigation of crystal form I (XRPD, long-term placement). The conditions noted are these: long-term 25° C., 60% RH, dark, sealed, sampling time 5 days. The format is physicochemical. How it is done: The crystal form I sample prepared by embodiment 2 was placed in the dark, sealed and placed flat, and the stability of the sample was investigated long-term (25° C., 60% RH), sampling time was 5 days, and XRPD was used to detect whether the crystal form changed.

The structures appear in SMILES notation.

By solubility is commonly meant how much of the substance goes into solution per volume. For the compound `CCO[C@H]1CC[C@H](NCC[C@@]2(c3ccccn3)CCOC3(CCCC3)C2)c2ccccc21` [Free base, (1S,4S)-4-ethoxy-N-(2-((R)-9-(pyridin-2-yl)-6-oxaspiro[4.5]deca-9-yl)ethyl)-1,2,3,4-tetrahydronaphthalen-1-amine], the solubility in data set [1] worked out at 0.0022 mg/mL.
For the compound `CCO[C@H]1CC[C@H](NCC[C@@]2(c3ccccn3)CCOC3(CCCC3)C2)c2ccccc21.O=C(O)/C=C/C(=O)O` [Compound represented by formula (I), (1S,4S)-4-ethoxy-N-(2-((R)-9-(pyridin-2-yl)-6-oxaspiro[4.5]deca-9-yl)ethyl)-1,2,3,4-tetrahydronaphthalen-1-amine fumarate salt], the solubility in data set [1] was 31.3 mg/mL. Also, the “XRPD peak pattern (crystal form change)” value in data set [2] is “remained unchanged”.
